Patent EP0349354A1, “Peptides PF10 to PF19 from a retro virus HIV, method for the synthesis of these peptides and their use, particularly in diagnostics” (INSTITUT PASTEUR, priority 1988, dated 1990)

Test system: anticorps anti-nef
Test: ELISA for detection of anti-nef antibodies on coated peptides or nef
Format: binding, humain
Conditions: for intensité de l'immunoréactivité (OD), Serum 1: Serum 1, anti-nef positive; for intensité de l'immunoréactivité (OD), Serum 1 / intensité de l'immunoréactivité (OD), Serum 2 / intensité de l'immunoréactivité (OD), Serum 3 / intensité de l'immunoréactivité (OD), Serum 4 / intensité de l'immunoréactivité (OD), Serum 5 / intensité de l'immunoréactivité (OD), Serum 6 / intensité de l'immunoréactivité (OD), Serum 7 / intensité de l'immunoréactivité (OD), Serum 8 / intensité de l'immunoréactivité (OD), Serum 9 / intensité de l'immunoréactivité (OD), Serum 10 / intensité de l'immunoréactivité (OD), Serum 11 / intensité de l'immunoréactivité (OD), Serum 12 / intensité de l'immunoréactivité (OD), Serum 13 / intensité de l'immunoréactivité (OD), Serum 14 / intensité de l'immunoréactivité (OD), Serum 15 / intensité de l'immunoréactivité (OD), Serum 16 / intensité de l'immunoréactivité (OD), Serum 17 / intensité de l'immunoréactivité (OD), Serum 18 / intensité de l'immunoréactivité (OD), Serum 19 / intensité de l'immunoréactivité (OD), Serum 20 / intensité de l'immunoréactivité (OD), Serum 21 / intensité de l'immunoréactivité (OD), Serum 22 / intensité de l'immunoréactivité (OD), Serum 23 / intensité de l'immunoréactivité (OD), Serum 24 / intensité de l'immunoréactivité (OD), Serum 25 / intensité de l'immunoréactivité (OD), Serum 26 / intensité de l'immunoréactivité (OD), Serum 27 / intensité de l'immunoréactivité (OD), Serum 28 / intensité de l'immunoréactivité (OD), Serum 29 / intensité de l'immunoréactivité (OD), Serum 30 / intensité de l'immunoréactivité (OD), Serum 31 / intensité de l'immunoréactivité (OD), Serum 32 / intensité de l'immunoréactivité (OD), Serum 33: 500 ng coated per well; for intensité de l'immunoréactivité (OD), Serum 2: Serum 2, anti-nef positive; for intensité de l'immunoréactivité (OD), Serum 3: Serum 3, anti-nef positive; for intensité de l'immunoréactivité (OD), Serum 4: Serum 4, anti-nef positive; for intensité de l'immunoréactivité (OD), Serum 5: Serum 5, anti-nef positive; for intensité de l'immunoréactivité (OD), Serum 6: Serum 6, anti-nef positive; for intensité de l'immunoréactivité (OD), Serum 7: Serum 7, anti-nef positive; for intensité de l'immunoréactivité (OD), Serum 8: Serum 8, anti-nef positive; for intensité de l'immunoréactivité (OD), Serum 9: Serum 9, anti-nef positive; for intensité de l'immunoréactivité (OD), Serum 10: Serum 10, anti-nef positive; for intensité de l'immunoréactivité (OD), Serum 11: Serum 11, anti-nef positive; for intensité de l'immunoréactivité (OD), Serum 12: Serum 12, anti-nef positive; for intensité de l'immunoréactivité (OD), Serum 13: Serum 13, anti-nef positive; for intensité de l'immunoréactivité (OD), Serum 14: Serum 14, anti-nef positive; for intensité de l'immunoréactivité (OD), Serum 15: Serum 15, anti-nef positive; for intensité de l'immunoréactivité (OD), Serum 16: Serum 16, anti-nef positive; for intensité de l'immunoréactivité (OD), Serum 17: Serum 17, anti-nef positive; for intensité de l'immunoréactivité (OD), Serum 18: Serum 18, anti-nef positive; for intensité de l'immunoréactivité (OD), Serum 19: Serum 19, anti-nef positive; for intensité de l'immunoréactivité (OD), Serum 20: Serum 20, anti-nef positive; for intensité de l'immunoréactivité (OD), Serum 21: Serum 21, anti-nef positive; for intensité de l'immunoréactivité (OD), Serum 22: Serum 22, anti-nef positive; for intensité de l'immunoréactivité (OD), Serum 23: Serum 23, anti-nef positive; for intensité de l'immunoréactivité (OD), Serum 24: Serum 24, anti-nef positive; for intensité de l'immunoréactivité (OD), Serum 25: Serum 25, anti-nef positive; for intensité de l'immunoréactivité (OD), Serum 26: Serum 26, anti-nef positive; for intensité de l'immunoréactivité (OD), Serum 27: Serum 27, anti-nef positive; for intensité de l'immunoréactivité (OD), Serum 28: Serum 28, anti-nef positive; for intensité de l'immunoréactivité (OD), Serum 29: Serum 29, anti-nef positive; for intensité de l'immunoréactivité (OD), Serum 30: Serum 30, anti-nef positive; for intensité de l'immunoréactivité (OD), Serum 31: Serum 31, anti-nef positive; for intensité de l'immunoréactivité (OD), Serum 32: Serum 32, anti-nef negative control serum; for intensité de l'immunoréactivité (OD), Serum 33: Serum 33, anti-nef negative control serum
Description: Des plaques de microtitration à 96 puits ont été recouvertes une nuit avec 500 ng de protéine nef bactérienne, à 37°C ou avec 500 ng de peptides synthétiques par puits dans 50µl de PBS à pH 7,4. Après saturation avec 400 µl de PBS pH 7,4, contenant 5% de caséine, durant 1 heure à 37°C et lavage avec PBS à pH 7,4, 0,5% de BSA, 0,01% tween, 50 µl de sérums à différentes dilutions ont été ajoutés pendant 2 heures à 37°C. Après le rinçage, 50µl de complexes d'IgG de souris anti-humaine-(H + L)-peroxydase 1:1000 ont été incubés pendant 1 heure à 37°C. Après un nouveau rinçage, 100µl de OPD ont été ajoutés pendant 30mn à température ambiante dans l'obscurité. La réaction de l'enzyme a été arrêtée par addition de 50µl d'acide sulfurique 4N et la densité optique des plaques a été lue à 492 nm/620 nm. Les plaques recouvertes avec la caséine ont été utilisées comme contrôle négatif.
En vue d'étudier la possibilité d'utiliser des peptides synthétiques en tant qu'antigènes pour la détection d'anticorps anti-nef chez des patients infectés par HIV, 8 peptides synthétiques couvrant la totalité de la séquence de la protéine nef de HIV-1 (figure 4) ont été utilisés dans un test ELISA avec 31 sérums anti-nef positifs et 2 sérums anti-nef négatifs utilisés comme contrôle. Les recombinants nef ont été utilisés comme contrôle positif dans les tests ELISA et la caséine a été utilisée comme contrôle négatif. Les résultats de ces expériences sont donnés dans le tableau 4 qui illustre l'essai suivant: Essai ELISA sur 31 sérums anti-nef-positifs et 2 sérums anti-nef- négatifs, soit pré-recouverts avec des peptides synthétiques (PF 11 à PF 18), soit en utilisant nef, la caséine ou un mélange de peptides PF 12 et PF 17. Les sérums ont été sélectionnés au hasard parmi des sérums anti-nef positifs et anti-nefs négatifs testés par la méthode RIA en utilisant ¹²⁵I nef. L'intensité de l'immunoradioactivité est notée "-" pour une densité optique (OD) inférieure à 0,2; "+" pour OD = 0,2 à 0,4; "++" pour OD = 0,4 à 0,8 et "+++" pour OD = 0,8 à 2,0.

Sequence | intensité de l'immunoréactivité (OD), Serum 1 | intensité de l'immunoréactivité (OD), Serum 2 | intensité de l'immunoréactivité (OD), Serum 3 | intensité de l'immunoréactivité (OD), Serum 4 | intensité de l'immunoréactivité (OD), Serum 5 | intensité de l'immunoréactivité (OD), Serum 6 | intensité de l'immunoréactivité (OD), Serum 7 | intensité de l'immunoréactivité (OD), Serum 8 | intensité de l'immunoréactivité (OD), Serum 9 | intensité de l'immunoréactivité (OD), Serum 10 | intensité de l'immunoréactivité (OD), Serum 11 | intensité de l'immunoréactivité (OD), Serum 12 | intensité de l'immunoréactivité (OD), Serum 13 | intensité de l'immunoréactivité (OD), Serum 14 | intensité de l'immunoréactivité (OD), Serum 15 | intensité de l'immunoréactivité (OD), Serum 16 | intensité de l'immunoréactivité (OD), Serum 17 | intensité de l'immunoréactivité (OD), Serum 18 | intensité de l'immunoréactivité (OD), Serum 19 | intensité de l'immunoréactivité (OD), Serum 20 | also measured
XGGKWSKSSVVGWPTVRERMRRAEPAADGVGAYCZ [PF11] | - (pour une densité optique (OD) inférieure à 0,2) | - (pour une densité optique (OD) inférieure à 0,2) | - (pour une densité optique (OD) inférieure à 0,2) | - (pour une densité optique (OD) inférieure à 0,2) | - (pour une densité optique (OD) inférieure à 0,2) | - (pour une densité optique (OD) inférieure à 0,2) | ++ (pour OD = 0,4 à 0,8) | - (pour une densité optique (OD) inférieure à 0,2) | - (pour une densité optique (OD) inférieure à 0,2) | - (pour une densité optique (OD) inférieure à 0,2) | ++ (pour OD = 0,4 à 0,8) | + (pour OD = 0,2 à 0,4) | - (pour une densité optique (OD) inférieure à 0,2) | - (pour une densité optique (OD) inférieure à 0,2) | - (pour une densité optique (OD) inférieure à 0,2) | - (pour une densité optique (OD) inférieure à 0,2) | - (pour une densité optique (OD) inférieure à 0,2) | - (pour une densité optique (OD) inférieure à 0,2) | +++ (pour OD = 0,8 à 2,0) | - (pour une densité optique (OD) inférieure à 0,2) | intensité de l'immunoréactivité (OD), Serum 21: + (pour OD = 0,2 à 0,4); intensité de l'immunoréactivité (OD), Serum 22: - (pour une densité optique (OD) inférieure à 0,2); intensité de l'immunoréactivité (OD), Serum 23: - (pour une densité optique (OD) inférieure à 0,2); intensité de l'immunoréactivité (OD), Serum 24: - (pour une densité optique (OD) inférieure à 0,2); intensité de l'immunoréactivité (OD), Serum 25: +++ (pour OD = 0,8 à 2,0); intensité de l'immunoréactivité (OD), Serum 26: +++ (pour OD = 0,8 à 2,0); intensité de l'immunoréactivité (OD), Serum 27: - (pour une densité optique (OD) inférieure à 0,2); intensité de l'immunoréactivité (OD), Serum 28: + (pour OD = 0,2 à 0,4); intensité de l'immunoréactivité (OD), Serum 29: + (pour OD = 0,2 à 0,4); intensité de l'immunoréactivité (OD), Serum 30: - (pour une densité optique (OD) inférieure à 0,2); intensité de l'immunoréactivité (OD), Serum 31: +++ (pour OD = 0,8 à 2,0); intensité de l'immunoréactivité (OD), Serum 32: - (pour une densité optique (OD) inférieure à 0,2); intensité de l'immunoréactivité (OD), Serum 33: - (pour une densité optique (OD) inférieure à 0,2)
XCVGFPVTPQVPLRPMTYKAAVDLSHFLKEKGGLEGLIHSQRRQDILZ [PF14] | - (pour une densité optique (OD) inférieure à 0,2) | - (pour une densité optique (OD) inférieure à 0,2) | +++ (pour OD = 0,8 à 2,0) | - (pour une densité optique (OD) inférieure à 0,2) | - (pour une densité optique (OD) inférieure à 0,2) | - (pour une densité optique (OD) inférieure à 0,2) | - (pour une densité optique (OD) inférieure à 0,2) | - (pour une densité optique (OD) inférieure à 0,2) | - (pour une densité optique (OD) inférieure à 0,2) | - (pour une densité optique (OD) inférieure à 0,2) | - (pour une densité optique (OD) inférieure à 0,2) | - (pour une densité optique (OD) inférieure à 0,2) | - (pour une densité optique (OD) inférieure à 0,2) | ++ (pour OD = 0,4 à 0,8) | - (pour une densité optique (OD) inférieure à 0,2) | - (pour une densité optique (OD) inférieure à 0,2) | - (pour une densité optique (OD) inférieure à 0,2) | - (pour une densité optique (OD) inférieure à 0,2) | - (pour une densité optique (OD) inférieure à 0,2) | - (pour une densité optique (OD) inférieure à 0,2) | nombre de sérums anti-nef positifs ayant réagi (ELISA, out of 31 anti-nef positive sera): 3; intensité de l'immunoréactivité (OD), Serum 21: ++ (pour OD = 0,4 à 0,8); intensité de l'immunoréactivité (OD), Serum 22: - (pour une densité optique (OD) inférieure à 0,2); intensité de l'immunoréactivité (OD), Serum 23: - (pour une densité optique (OD) inférieure à 0,2); intensité de l'immunoréactivité (OD), Serum 24: - (pour une densité optique (OD) inférieure à 0,2); intensité de l'immunoréactivité (OD), Serum 25: - (pour une densité optique (OD) inférieure à 0,2); intensité de l'immunoréactivité (OD), Serum 26: - (pour une densité optique (OD) inférieure à 0,2); intensité de l'immunoréactivité (OD), Serum 27: - (pour une densité optique (OD) inférieure à 0,2); intensité de l'immunoréactivité (OD), Serum 28: - (pour une densité optique (OD) inférieure à 0,2); intensité de l'immunoréactivité (OD), Serum 29: - (pour une densité optique (OD) inférieure à 0,2); intensité de l'immunoréactivité (OD), Serum 30: - (pour une densité optique (OD) inférieure à 0,2); intensité de l'immunoréactivité (OD), Serum 31: - (pour une densité optique (OD) inférieure à 0,2); intensité de l'immunoréactivité (OD), Serum 32: - (pour une densité optique (OD) inférieure à 0,2); intensité de l'immunoréactivité (OD), Serum 33: - (pour une densité optique (OD) inférieure à 0,2)
